Patent US10226451B2, “Substituted bicyclic compounds as bromodomain inhibitors” (ZENITH EPIGENETICS LTD, priority 2013, dated 2019)

Assays:
[1] = tested on: hIL-17 mRNA in human peripheral blood mononuclear cells; experiment: Inhibition of hIL-17 mRNA transcription in OKT3-stimulated PBMC; format: cell-based; settings: OKT3 antibody, 6 h, read-out: IL-17 activity
Protocol: In this example, hIL-17 mRNA in human peripheral blood mononuclear cells were quantitated to measure the transcriptional inhibition of hIL-17 when treated with a compound of the present disclosure.
Human peripheral blood mononuclear cells were plated (2.0×10^5 cells per well) in a 96-well plate in 45 μL OpTimizer T Cell expansion media (Life Technologies) containing 20 ng/ml IL-2 and penicillin/streptomycin. The cells were treated with increasing concentrations of the test compound or DMSO (0.1%), and incubated at 37° C., 5% CO2 for 1 h before addition of 10× stock OKT3 antibody at 10 ug/ml in media. Triplicate wells were used for each concentration. Cells were incubated at 37° C., 5% CO2 for 6 h before the cells were harvested. At time of harvest, cells were pelleted by centrifugation at 800 rpm for 5 min. Cells were harvested using the mRNA Catcher PLUS kit according to manufacturer's instructions. The eluted mRNA was then used in a one-step quantitative real-time PCR reaction, using components of the RNA UltraSense™ One-Step Kit (Life Technologies) together with Applied Biosystems TaqMan® primer-probes for hIL-17 and Cyclophilin. Real-time PCR plates were run on a ViiA™7 real time PCR machine (Applied Biosystems), data was analyzed, normalizing the Ct values for hIL-17 to an internal control, prior to determining the fold induction of each unknown sample, relative to the control.

[2] = target: T1, Brd4 bromodomain 1 (BRD4(1)) (Homo sapiens, UniProt O60885); experiment: Inhibition of tetra-acetylated histone H4 binding to Brd4 bromodomain 1 (HTRF/FRET); settings: tetra-acetylated histone H4 peptide, His-tagged bromodomain 200 nM, 2 h
T1 construct: made in house; host or cells: E. coli BL21(DE3)
Protocol: Proteins were cloned and overexpressed with a N-terminal 6×His tag, then purified by nickel affinity followed by size exclusion chromatography. Briefly, E. coli BL21(DE3) cells were transformed with a recombinant expression vector encoding N-terminally Nickel affinity tagged bromodomains from Brd2, Brd3, Brd4. Cell cultures were incubated at 37° C. with shaking to the appropriate density and induced overnight with IPTG. The supernatant of lysed cells was loaded onto Ni-IDA column for purification. Eluted protein was pooled, concentrated and further purified by size exclusion chromatography. Fractions representing monomeric protein were pooled, concentrated, aliquoted, and frozen at −80° C. for use in subsequent experiments.
Binding of tetra-acetylated histone H4 and BET bromodomains was confirmed by a Homogenous Time Resolved Fluorescence Resonance Energy Transfer (HTRF®) method. N-terminally His-tagged bromodomains (200 nM) and biotinylated tetra-acetylated histone H4 peptide (25-50 nM, Millipore) were incubated in the presence of Europium Cryptate-labeled streptavidin (Cisbio Cat. #610SAKLB) and XL665-labeled monoclonal anti-His antibody (Cisbio Cat. #61HISXLB) in a white 96 well microtiter plate (Greiner). For inhibition assays, serially diluted test compound was added to these reactions in a 0.2% final concentration of DMSO. Duplicate wells were used for each concentration tested. Final buffer concentrations were 30 mM HEPES pH 7.4, 30 mM NaCl, 0.3 mM CHAPS, 20 mM phosphate pH 7.0, 320 mM KF, 0.08% BSA. After a 2 h incubation at room temperature, fluorescence was measured at 665 and 620 nm with a SynergyH4 plate reader (Biotek). The binding inhibitory activity was shown by a decrease in 665 nm relative to 620 nm fluorescence. IC50 values were determined from a dose response curve.

[3] = tested on: c-myc in Human AML MV4-11 cells; experiment: Inhibition of c-MYC expression (mRNA, real-time PCR) in MV4-11 cells; format: cell-based; settings: 3 h, mRNA by real-time PCR
Protocol: MV4-11 cells (CRL-9591) were plated at a density of 2.5×10^4 cells per well in 96 well U-bottom plates and treated with increasing concentrations of test compound or DMSO (0.1%) in IMDM media containing 10% FBS and penicillin/streptomycin, and incubated for 3 h at 37° C. Triplicate wells were used for each concentration. Cells were pelleted by centrifugation and harvested using the mRNA Catcher PLUS kit according to manufacturer's instructions. The eluted mRNA isolated was then used in a one-step quantitative real-time PCR reaction, using components of the RNA UltraSense™ One-Step Kit (Life Technologies) together with Applied Biosystems TaqMan® primer-probes for cMYC and Cyclophilin. Real-time PCR plates were run on a ViiA™7 real time PCR machine (Applied Biosystems), data was analyzed, normalizing the Ct values for hMYC to an internal control, prior to determining the fold expression of each sample, relative to the control.

[4] = tested on: hApoA-I mRNA in Huh7 cells; experiment: Up-regulation of hApoA-1 mRNA transcription in Huh7 cells; format: cell-based, Human; settings: EC170, Huh7 cells, 48 h
Protocol: In this example, hApoA-I mRNA in tissue culture cells was quantitated to measure the transcriptional up-regulation of hApoA-I when treated with a compound of the present disclosure.
Huh7 cells (2.5×10^5 per well) were plated in a 96-well plate using 100 μL DMEM per well, (Gibco DMEM supplemented with penicillin/streptomycin and 10% FBS), 72 h before the addition of the compound. The cells are treated with increasing concentrations of the compound or DMSO (0.1%), and incubated at 37° C., 5% CO2 for 48 h. Spent media was removed from the Huh-7 cells and placed on ice for immediate use with the “LDH cytotoxicity assay Kit II” from Abcam. The cells remaining in the plate were rinsed with 100 μL PBS. Cells were harvested using the mRNA Catcher PLUS kit according to manufacturer's instructions. The eluted mRNA was then used in a one-step quantitative real-time PCR reaction, using components of the RNA UltraSense™ One-Step Kit (Life Technologies) together with Applied Biosystems TaqMan® primer-probes for hApoA-I and Cyclophilin. Real-time PCR plates were run on a ViiA™7 real time PCR machine (Applied Biosystems), data was analyzed, normalizing the Ct values for hApoA-1 to an internal control, prior to determining the fold induction of each unknown sample, relative to the control.

hIL-6 mRNA in U937 cells = experiment: Inhibition of hIL-6 mRNA transcription in LPS-stimulated U937 cells; format: cell-based; settings: Homo sapiens, U-937, PMA-differentiated U937 cells, LPS 1 ug/mL, 3 h, read-out: IL-6 activity
Protocol: In this example, hIL-6 mRNA in tissue culture cells were quantitated to measure the transcriptional inhibition of hIL-6 when treated with a compound of the present disclosure.
Human leukemic monocyte lymphoma U937 cells (CRL-1593.2) were plated at a density of 3.2×10^4 cells per well in a 96-well plate in 100 μL RPMI-1640 containing 10% FBS and penicillin/streptomycin, and differentiated into macrophages for 3 days in 60 ng/mL PMA ([…]) at 37° C. in 5% CO2 prior to the addition of compound. The cells were pretreated for 1 h with increasing concentrations of test compound in 0.1% DMSO prior to stimulation with 1 ug/mL lipopolysaccharide from Escherichia coli. Triplicate wells were used for each concentration. The cells were incubated at 37° C., 5% CO2 for 3 h before the cells were harvested. At time of harvest, media was removed and cells were rinsed in 200 μL PBS. Cells were harvested using the mRNA Catcher PLUS kit according to manufacturer's instructions. The eluted mRNA was then used in a one-step quantitative real-time PCR reaction using components of the RNA UltraSense™ One-Step Kit (Life Technologies) together with Applied Biosystems TaqMan® primer-probes for hIL-6 and Cyclophilin. Real-time PCR plates were run on a ViiA™7 real time PCR machine (Applied Biosystems), data was analyzed, normalizing the Ct values for hIL-6 to an internal control, prior to determining the fold expression of each sample, relative to the control.

Human AML MV-4-11 cells = experiment: Inhibition of cell proliferation in MV4-11 cells (CellTiter Aqueous One); format: cell-based; settings: 72 h
Protocol: In this example, cell titer in MV4-11 cells were quantitated to measure the inhibition of proliferation when treated with a compound of the present disclosure.
MV4-11 cells (CRL-9591) were plated at a density of 5×10^4 cells per well in 96 well flat bottom plates and treated with increasing concentrations of test compound or DMSO (0.1%) in IMDM media containing 10% FBS and penicillin/streptomycin. Triplicate wells were used for each concentration and a well containing only media was used as a control. Plates were incubated at 37° C., 5% CO2 for 72 h before adding 20 μL of the CellTiter Aqueous One Solution (Promega) to each well and incubated at 37° C., 5% CO2 for an additional 3-4 h. The absorbance was read at 490 nm in a spectrophotometer and the percentage of cell titer relative to DMSO-treated cells was calculated after correcting for background by subtracting the blank well's signal. IC50 values were calculated using the Graph Pad Prism software.

Cc1noc(C)c1-c1cc(-c2c(C)noc2C)c2[nH]c(=O)[nH]c2c1 [Example Compound 1, 4,6-bis(3,5-dimethylisoxazol-4-yl)-1H-benzo[d]imidazol-2(3H)-one]
IC50 [1]: ≤ 300 nM
IC50 [2]: ≤ 300 nM
IC50 [3]: 300 to 3000 nM
ApoA-1 activity [4]: +++ (EC170 value less than or equal to 0.3 μM were deemed to be highly active (+++))
IC50 (hIL-6 mRNA in U937 cells): ≤ 300 nM
IC50 (Human AML MV-4-11 cells): ≤ 300 nM

Cc1ncccc1-c1cc(-c2c(C)noc2C)cc2[nH]c(=O)n(C)c12 [Example Compound 4, 5-(3,5-dimethylisoxazol-4-yl)-1-methyl-7-(2-methylpyridin-3-yl)-1H-benzo[d]imidazol-2(3H)-one]
IC50 [1]: 300 to 3000 nM
IC50 [2]: ≤ 300 nM
IC50 [3]: ≤ 300 nM
ApoA-1 activity [4]: +++ (EC170 value less than or equal to 0.3 μM were deemed to be highly active (+++))
IC50 (hIL-6 mRNA in U937 cells): ≤ 300 nM
IC50 (Human AML MV-4-11 cells): 300 to 3000 nM

Cc1cnsc1-c1cc(-c2c(C)noc2C)cc2[nH]c(=O)n(C)c12 [Example Compound 10, 5-(3,5-dimethylisoxazol-4-yl)-1-methyl-7-(4-methylisothiazol-5-yl)-1H-benzo[d]imidazol-2(3H)-one]
IC50 [1]: ≤ 300 nM
IC50 [2]: ≤ 300 nM
IC50 [3]: ≤ 300 nM
IC50 (hIL-6 mRNA in U937 cells): ≤ 300 nM
IC50 (Human AML MV-4-11 cells): ≤ 300 nM

Cc1noc(C)c1-c1cc(-c2ccc(F)cc2C(F)(F)F)c2c(c1)[nH]c(=O)n2C [Example Compound 11, 5-(3,5-dimethylisoxazol-4-yl)-7-(4-fluoro-2-(trifluoromethyl)phenyl)-1-methyl-1H-benzo[d]imidazol-2(3H)-one]
IC50 [1]: ≤ 300 nM
IC50 [2]: 300 to 3000 nM
IC50 [3]: 300 to 3000 nM
IC50 (hIL-6 mRNA in U937 cells): 300 to 3000 nM
IC50 (Human AML MV-4-11 cells): 300 to 3000 nM

COc1ccc(F)cc1-c1cc(-c2c(C)noc2C)cc2[nH]c(=O)n(C)c12 [Example Compound 18, 5-(3,5-dimethylisoxazol-4-yl)-7-(5-fluoro-2-methoxyphenyl)-1-methyl-1H-benzo[d]imidazol-2(3H)-one]
IC50 [1]: ≤ 300 nM
IC50 [2]: ≤ 300 nM
IC50 [3]: 300 to 3000 nM
IC50 (hIL-6 mRNA in U937 cells): ≤ 300 nM
IC50 (Human AML MV-4-11 cells): 300 to 3000 nM

Cc1nc(N)ccc1-c1cc(-c2c(C)noc2C)cc2[nH]c(=O)n(C)c12 [Example Compound 20, 7-(6-amino-2-methylpyridin-3-yl)-5-(3,5-dimethylisoxazol-4-yl)-1-methyl-1H-benzo[d]imidazol-2(3H)-one]
IC50 [1]: 300 to 3000 nM
IC50 [2]: ≤ 300 nM
IC50 [3]: 300 to 3000 nM
IC50 (hIL-6 mRNA in U937 cells): ≤ 300 nM
IC50 (Human AML MV-4-11 cells): ≤ 300 nM

Cc1n[nH]c(C)c1-c1cc(-c2c(C)noc2C)cc2[nH]c(=O)n(C)c12 [Example Compound 21, 7-(3,5-dimethyl-1H-pyrazol-4-yl)-5-(3,5-dimethylisoxazol-4-yl)-1-methyl-1H-benzo[d]imidazol-2(3H)-one]
IC50 [1]: ≤ 300 nM
IC50 [2]: ≤ 300 nM
IC50 [3]: ≤ 300 nM
IC50 (hIL-6 mRNA in U937 cells): ≤ 300 nM
IC50 (Human AML MV-4-11 cells): ≤ 300 nM

Cc1noc(C)c1-c1cc(-c2c(C)nn(C)c2C)c2[nH]c(=O)[nH]c2c1 [Example Compound 22, 6-(3,5-dimethylisoxazol-4-yl)-4-(1,3,5-trimethyl-1H-pyrazol-4-yl)-1H-benzo[d]imidazol-2(3H)-one]
IC50 [1]: ≤ 300 nM
IC50 [2]: ≤ 300 nM
IC50 [3]: ≤ 300 nM
IC50 (hIL-6 mRNA in U937 cells): ≤ 300 nM
IC50 (Human AML MV-4-11 cells): ≤ 300 nM

Cc1noc(CO)c1-c1cc(-c2c(C)nn(C)c2C)c2c(c1)[nH]c(=O)n2C [Example Compound 28, 5-(5-(hydroxymethyl)-3-methylisoxazol-4-yl)-1-methyl-7-(1,3,5-trimethyl-1H-pyrazol-4-yl)-1H-benzo[d]imidazol-2(3H)-one]
IC50 [1]: 300 to 3000 nM
IC50 [2]: ≤ 300 nM
IC50 [3]: 300 to 3000 nM
IC50 (hIL-6 mRNA in U937 cells): 300 to 3000 nM
IC50 (Human AML MV-4-11 cells): 300 to 3000 nM

Cc1noc(C)c1-c1cc(-c2cccc(C(N)=O)c2C)c2c(c1)[nH]c(=O)n2C [Example Compound 30, 3-(6-(3,5-dimethylisoxazol-4-yl)-3-methyl-2-oxo-2,3-dihydro-1H-benzo[d]imidazol-4-yl)-2-methylbenzamide]
IC50 [1]: ≤ 300 nM
IC50 [2]: ≤ 300 nM
IC50 [3]: ≤ 300 nM
IC50 (hIL-6 mRNA in U937 cells): ≤ 300 nM
IC50 (Human AML MV-4-11 cells): ≤ 300 nM
